In EP4778920A1, “INDAZOLONE COMPOUND, PREPARATION METHOD THEREFOR, PHARMACEUTICAL COMPOSITION, AND USE” (Shanghai Institute of Materia Medica, Chinese Academy of …, priority 2023, dated 2025) one finds IC50 data, which are given here for 20 compounds.

Common to all, as to assay type: cell-based
Experiment [1] has as its system MM.1S cells. The experiment is described as follows: MM.1S cell proliferation inhibition (MTS assay). As to conditions: Homo sapiens, MM1.S, 168 h, 7 days incubation, read-out: MM1.S (IC50, Inhibitory Activity of Compounds on MM.1S Cell Proliferation). Here is the method: The cell concentration was diluted according to a 7-day incubation period, and 180 µL of cell suspension was added to each well of a 96-well plate, with 20,000 cells per well. […] The test compounds were prepared from a 10 mM stock solution and serially diluted in a 5-fold gradient, and 20 µL of the diluted solution was added to each compound-treated well (final DMSO concentration also 0.2%). The cells were incubated in a 37 °C, 5% CO2 incubator for 7 days. After incubation, the reaction solution was prepared according to the MTS assay kit instructions (Promega, G5430), and 20 µL was added to each well. The plate was incubated at 37 °C with 5% CO2 for 3-4 hours. The absorbance at 490 nm was measured using a microplate reader, and the absorbance at 690 nm was used as the background value. […] The IC50 values for cell proliferation inhibition were determined using GraphPad Prism 5.0. Each experiment was repeated three times, and three parallel replicates were performed in each experiment to calculate the mean value and standard deviation.
Inhibitory Activity of Compounds on MM.1S Cell Proliferation
(In general: Tetrazolium dyes change colour on reduction, which living cells bring about.)

Experiment [2] deals with Mino cells. The experiment is described as follows: Mino cell proliferation inhibition (MTS assay). As to conditions: Homo sapiens, 72 h, 3 days incubation, read-out: Mino (IC50, Inhibitory Activity of Compounds on Mino Cell Proliferation). Here is the method: The cell concentration was diluted according to a 3-day incubation period, and 90 µL of cell suspension was added to each well of a 96-well plate, resulting in 8,000 cells per well. […] The test compounds were prepared from a 10 mM stock solution and serially diluted in a five-fold gradient. Similarly, 10 µL of the diluted compound solution was added to each compound-treated well (final DMSO concentration 0.2%).
The cells were incubated in a 37 °C, 5% CO2 incubator for 3 days. After incubation, the reaction solution was prepared according to the MTS assay kit instructions (Promega, G5430), and 20 µL was added to each well. The plate was further incubated at 37 °C with 5% CO2 for 3-4 hours. The absorbance at 490 nm was measured using a microplate reader, and the absorbance at 690 nm was used as the background value. The final raw data were calculated as OD490 - OD690. […] The IC50 values for cell proliferation inhibition were determined using GraphPad Prism 5.0. Each experiment was repeated three times, and three parallel replicates were performed in each experiment to calculate the mean value and standard deviation.
Table 2. Inhibitory Activity of Compounds on Mino Cell Proliferation

The subject of experiment [3] is MV-4-11 cells. The experiment is described as follows: MV-4-11 cell proliferation inhibition (MTS assay). The conditions noted are these: Homo sapiens. Here is the method: MV-4-11 cells were cultured in IMDM medium supplemented with 10% fetal bovine serum and collected. The cell concentration was diluted according to a 7-day incubation period, and 180 µL of cell suspension was added to each well of a 96-well plate, resulting in 2,000 cells per well. […] The test compounds were prepared from a 10 mM stock solution and serially diluted in a five-fold gradient, and 20 µL of the diluted compound solution was added to each compound-treated well (final DMSO concentration 0.2%). The cells were incubated in a 37 °C, 5% CO2 incubator for 7 days. After incubation, the reaction solution was prepared according to the MTS assay kit instructions (Promega, G5430), and 20 µL was added to each well. The plate was further incubated at 37 °C with 5% CO2 for 3-4 hours. The absorbance at 490 nm was measured using a microplate reader, and the absorbance at 690 nm was used as the background value. The final raw data were calculated as OD490 - OD690. […] The IC50 values for cell proliferation inhibition were determined using GraphPad Prism 5.0. Each experiment was repeated three times, and three parallel replicates were performed in each experiment to calculate the mean value and standard deviation.
Table 3. Inhibitory Activity of Compounds on MV-4-11 Cell Proliferation

Where [4] appears, read: MV4-11, 168 h, 7 days incubation, MTS, read-out: MV-411 (IC50, Inhibitory Activity of Compounds on MV-4-11 Cell Proliferation).
Setting [5] is: MV4-11, reference compounds, read-out: cell growth inhibitory activity (IC50).

Where two headings read alike, the source gives them in different places. A value given as a limit tells only on which side of the number the result lay.

In the case of `Cc1ccc([C@H](C)NC(=O)c2ccc3c(=O)n(C4CCC(=O)NC4=O)[nH]c3c2)cc1` (some centres unmarked) [Compound D31], the results for the IC50 in experiment [1], in experiment [2] and in experiment [3] (setting [4]) were above 10 µM, above 10 µM and above 20 µM, respectively.
On to `O=C1CCC(n2[nH]c3c(OCc4ccc(CN5CCN(c6ccc(Cl)cc6Cl)CC5)cc4)cc(F)cc3c2=O)C(=O)N1` (centres unmarked) [Compound D16, 3-(7-((4-((4-(2,4-dichlorophenyl)piperazin-1-yl)methyl)benzyl)oxy)-5-fluoro-3-oxo-1,3-dihydro-2H-indazol-2-yl)piperidine-2,6-dione], for which the IC50 in experiment [1], in experiment [2] and in experiment [3] (setting [4]) was below 0.2 µM each time.
On to `C[C@@H](NC(=O)c1ccc2c(=O)n(C3CCC(=O)NC3=O)[nH]c2c1)c1ccccc1` (stereo partly drawn) [Compound D32, 2-(2,6-dioxopiperidin-3-yl)-3-oxo-N-((R)-1-phenylethyl)-2,3-dihydro-1H-indazole-6-carboxamide], for which the values for the IC50 in experiment [1], in experiment [2] and in experiment [3] (setting [4]) were above 10 µM, above 10 µM and above 20 µM, respectively.
In the case of `O=C1CCC(n2[nH]c3c(OCc4ccc(CN5CCN(c6ccc(C(F)(F)F)cc6)CC5)cc4)cccc3c2=O)C(=O)N1` (centres unmarked) [Compound D11, 3-(3-Oxo-7-((4-((4-(4-(trifluoromethyl)phenyl)piperazin-1-yl)methyl)benzyl)oxy)-1,3-dihydro-2H-indazol-2-yl)piperidine-2,6-dione], the IC50 in experiment [1] was below 0.2 µM; in experiment [2], 0.2 to 1 µM; in experiment [3] (setting [4]), below 0.2 µM.
As to `N#Cc1ccc(N2CCC(Sc3ccc(COc4cccc5c(=O)n([C@H]6CCC(=O)NC6=O)[nH]c45)cn3)CC2)c(F)c1` [Compound D3, (S)-4-(4-((5-(((2-(2,6-dioxopiperidin-3-yl)-3-oxo-2,3-dihydro-1H-indazol-7-yl)oxy)methyl)pyridin-2-yl)thio)piperidin-1-yl)-3-fluorobenzonitrile], the values for the IC50 in experiment [1], in experiment [2] and in experiment [3] (setting [4]) were below 0.2 µM, below 0.2 µM and 0.2 to 1 µM, respectively.
As for `Nc1cccc2c1C(=O)N(C1CCC(=O)NC1=O)C2=O` (centres unmarked) [pomalidomide, reference compound], in experiment [3] (setting [5]), the IC50 was above 20 µM.
For `C[C@@H](NC(=O)c1ccc2c(=O)n(C3CCC(=O)NC3=O)[nH]c2c1)c1ccc(Cl)cc1` (stereo partly drawn) [Compound D34, N-((R)-1-(4-chlorophenyl)ethyl)-2-(2,6-dioxopiperidin-3-yl)-3-oxo-2,3-dihydro-1H-indazole-6-carboxamide], the IC50 is above 10 µM in experiment [1], above 10 µM in experiment [2] and above 20 µM in experiment [3] (setting [4]).
For the compound `Cn1c2c(OCc3ccc(CN4CCOCC4)cc3)cccc2c(=O)n1C1CCC(=O)NC1=O` (centres unmarked) [Compound D22, 3-(1-Methyl-7-((4-(morpholinomethyl)benzyl)oxy)-3-oxo-1,3-dihydro-2H-indazol-2-yl)piperidine-2,6-dione], the IC50 was below 0.2 µM in experiment [1], above 10 µM in experiment [2] and above 20 µM in experiment [3] (setting [4]).
For `O=C1CC[C@H](n2[nH]c3c(OCc4cnc(-c5ccc(OC(F)(F)F)cc5)o4)cccc3c2=O)C(=O)N1` [Compound D26, (S)-3-(3-Oxo-7-((2-(4-(trifluoromethoxy)phenyl)oxazol-5-yl)methoxy)-1,3-dihydro-2H-indazol-2-yl)piperidine-2,6-dione] the same measures were 1 to 10 µM, 1 to 10 µM and 1 to 20 µM.
With `O=C1CCC(n2[nH]c3c(OCc4ccc(CN5CCN(c6ccc(Cl)cc6Cl)CC5)cc4)cccc3c2=O)C(=O)N1` (centres unmarked) [Compound D12, 3-(7-((4-((4-(2,4-dichlorophenyl)piperazin-1-yl)methyl)benzyl)oxy)-3-oxo-1,3-dihydro-2H-indazol-2-yl)piperidine-2,6-dione], the IC50 is below 0.2 µM in experiment [1], 0.2 to 1 µM in experiment [2] and below 0.2 µM in experiment [3] (setting [4]).
Take `O=C1CCC(n2[nH]c3cc(C(=O)N[C@H](c4ccccc4)C(F)(F)F)ccc3c2=O)C(=O)N1` (stereo partly drawn) [Compound D37, 2-(2,6-dioxopiperidin-3-yl)-3-oxo-N-((R)-2,2,2-trifluoro-1-phenylethyl)-2,3-dihydro-1H-indazole-6-carboxamide]: the IC50 in experiment [1] is above 10 µM; in experiment [2], above 10 µM; in experiment [3] (setting [4]), above 20 µM.
On to `C[C@H](NC(=O)c1ccc2c(=O)n(C3CCC(=O)NC3=O)[nH]c2c1)c1ccc(Cl)cc1` (stereo partly drawn) [Compound D30, N-((S)-1-(4-chlorophenyl)ethyl)-2-(2,6-dioxopiperidin-3-yl)-3-oxo-2,3-dihydro-1H-indazole-6-carboxamide], for which the figures for the IC50 in experiment [1], in experiment [2] and in experiment [3] (setting [4]) were above 10 µM, 1 to 10 µM and 1 to 20 µM, respectively.
As to `C[C@H](NC(=O)c1ccc2c(=O)n(C3CCC(=O)NC3=O)[nH]c2c1)c1cccc(Cl)c1` (stereo partly drawn) [Compound D39, N-((S)-1-(3-chlorophenyl)ethyl)-2-(2,6-dioxopiperidin-3-yl)-3-oxo-2,3-dihydro-1H-indazole-6-carboxamide], the values for the IC50 in experiment [1], in experiment [2] and in experiment [3] (setting [4]) were above 10 µM, above 10 µM and above 20 µM, respectively.
In the case of `COc1ccc(-c2ncc(COc3cccc4c(=O)n(C5CCC(=O)NC5=O)[nH]c34)o2)cc1` (centres unmarked) [Compound D28, 3-(7-((2-(4-methoxyphenyl)oxazol-5-yl)methoxy)-3-oxo-1,3-dihydro-2H-indazol-2-yl)piperidine-2,6-dione], the IC50 in experiment [1] is 1 to 10 µM; in experiment [2], above 10 µM; in experiment [3] (setting [4]) it was above 20 µM.
For `Cc1cccc2c1OCC[C@H]2NC(=O)c1ccc2c(=O)n(C3CCC(=O)NC3=O)[nH]c2c1` (stereo partly drawn) [Compound D42, 2-(2,6-dioxopiperidin-3-yl)-N-((R)-8-methylchroman-4-yl)-3-oxo-2,3-dihydro-1H-indazole-6-carboxamide] the same measures were above 10 µM, above 10 µM and above 20 µM.
For `O=C1CCC(n2[nH]c3cc(C(=O)N[C@@H]4CCOc5ccc(Cl)cc54)ccc3c2=O)C(=O)N1` (stereo partly drawn) [Compound D41, N-((R)-6-chlorochroman-4-yl)-2-(2,6-dioxopiperidin-3-yl)-3-oxo-2,3-dihydro-1H-indazole-6-carboxamide] the same measures were above 10 µM, above 10 µM and above 20 µM.
For `O=C1CCC(n2[nH]c3c(OCc4ccc(CN5CCN(c6ccc(C(F)(F)F)cc6)CC5)cc4)cc(F)cc3c2=O)C(=O)N1` (centres unmarked) [Compound D17, 3-(5-Fluoro-3-oxo-7-((4-((4-(4-(trifluoromethyl)phenyl)piperazin-1-yl)methyl)benzyl)oxy)-1,3-dihydro-2H-indazol-2-yl)piperidine-2,6-dione], in that order: below 0.2 µM, below 0.2 µM and below 0.2 µM.
Regarding `Cc1ccc(CNC(=O)c2ccc3c(=O)n(C4CCC(=O)NC4=O)[nH]c3c2)cc1` (centres unmarked) [Compound D36, 2-(2,6-dioxopiperidin-3-yl)-N-(4-methylbenzyl)-3-oxo-2,3-dihydro-1H-indazole-6-carboxamide], the IC50 in experiment [1] is above 10 µM; in experiment [2] it was above 10 µM; in experiment [3] (setting [4]), above 20 µM.
As to `O=C1CC[C@H](n2[nH]c3c(OCc4cnc(-c5ccc(Cl)cc5)o4)cccc3c2=O)C(=O)N1` [Compound D27, (S)-3-(7-((2-(4-chlorophenyl)oxazol-5-yl)methoxy)-3-oxo-1,3-dihydro-2H-indazol-2-yl)piperidine-2,6-dione], the IC50 was 1 to 10 µM in experiment [1], above 10 µM in experiment [2] and above 20 µM in experiment [3] (setting [4]).
Take `O=C1CC[C@H](N2Cc3c(OCc4ccc(CN5CCOCC5)cc4)cccc3C2=O)C(=O)N1` [CC-220, reference compound]: in experiment [3] (setting [5]), the IC50 was above 20 µM.
